Measured values published in the NIST ThermoML archive (doi:10.1021/je060088h).

Conditions: Liquid, flow method with low res time

CCCCCCCCCCCCS [1-dodecanethiol]
Conditions	Critical pressure [kPa]	Critical temperature [K]	vapor or sublimation pressure [kPa]
–	1810	733.7	–
544.5 K	–	–	89.98
577.8 K	–	–	178.6
614.7 K	–	–	348.2
659.9 K	–	–	694.3
688.6 K	–	–	1039
712.4 K	–	–	1384
729.8 K	–	–	1726

c1ccc2ccccc2c1 [naphthalene]
Conditions	Critical pressure [kPa]	Critical temperature [K]	vapor or sublimation pressure [kPa]
–	4130	750	–
502.2 K	–	–	128.9
552.2 K	–	–	337.8
646.6 K	–	–	1338
731.8 K	–	–	3445
741.5 K	–	–	3793
745.9 K	–	–	3958

OCCc1ccccc1 [2-phenylethanol]
Conditions	Critical pressure [kPa]	Critical temperature [K]	vapor or sublimation pressure [kPa]
–	3990	723.5	–
488.7 K	–	–	91.7
515.5 K	–	–	174.9
547.5 K	–	–	340.6
587.4 K	–	–	692.9
634.4 K	–	–	1382
689.8 K	–	–	2762
711.2 K	–	–	3451
719.2 K	–	–	3793
722.5 K	–	–	3966

C=CCO [2-propenol]
Conditions	Critical pressure [kPa]	Critical temperature [K]	vapor or sublimation pressure [kPa]
–	5640	547.1	–
438.1 K	–	–	759.8
465.2 K	–	–	1383
498.5 K	–	–	2595
531.5 K	–	–	4482
545.4 K	–	–	5516
546.5 K	–	–	5599

CC(O)COC(C)(C)C (stereo unspecified) [1-(1,1-dimethylethoxy)-2-propanol]
Conditions	Critical pressure [kPa]	Critical temperature [K]	vapor or sublimation pressure [kPa]
–	2720	600.7	–
450.5 K	–	–	200.9
472.9 K	–	–	337.8
510.2 K	–	–	689.5
553.3 K	–	–	1380
592.7 K	–	–	2414
597.5 K	–	–	2586
598.5 K	–	–	2668

CCCCCCCCCCCCCCCCCCCCCCCCCCCCCC [triacontane]
Conditions	vapor or sublimation pressure [kPa]
713.5 K	82.32
737.8 K	127.8
761.2 K	190.2
786 K	282.4
809.6 K	414.1

CSc1ccccc1 [1-phenyl-1-thiaethane]
Conditions	Critical pressure [kPa]	Critical temperature [K]	vapor or sublimation pressure [kPa]
–	4050	705.9	–
463.7 K	–	–	90.87
492.1 K	–	–	177.3
526.3 K	–	–	354.1
566.1 K	–	–	696.4
613.6 K	–	–	1383
671.1 K	–	–	2765
691.7 K	–	–	3454
699.9 K	–	–	3799
704.3 K	–	–	3964
